The source of these data is patent publication US20040037843A1, “Inducing cellular immune responses to prostate cancer antigens using peptide and nucleic acid compositions” (priority 2003, published 2004).

Each structure is given as a SMILES string.

For this assay, the system named is .221A2.1 peptide-loaded target cells and cells expressing endogenous antigen. Put plainly: Primary in vitro CTL induction with peptide-pulsed DC, CTL lytic activity by 51Cr release. The conditions noted are these: immunogenicity, positive/tested; for A2 peptide: CTL recognition of the peptide; for A2 native: CTL recognition of native (wild-type) target. The format is cell-based, human. On the procedure:
Testing was performed using the following methodology:
Cells that express an antigen of interest, or transfectants comprising the gene encoding the antigen of interest, can be used as target cells to test the ability of peptide-specific CTLs to recognize endogenous antigen.
The monocytes are purified by plating 10×10^6 PBMC/well in a 6-well plate. After 2 hours at 37° C., the non-adherent cells are removed by gently shaking the plates and aspirating the supernatants. The wells are washed a total of three times with 3 ml RPMI to remove most of the non-adherent and loosely adherent cells. Three ml of complete medium containing 50 ng/ml of GM-CSF and 1,000 U/ml of IL-4 are then added to each well. TNFα is added to the DCs on day 6 at 75 ng/ml and the cells are used for CTL induction cultures on day 7.
Induction of CTL with DC and Peptide: CD8+ T-cells are isolated by positive selection with Dynal imnmunomagnetic beads (Dynabeads® M-450) and the detacha-bead® reagent. Typically about 200-250×10^6 PBMC are processed to obtain 24×10^6 CD8^+T-cells (enough for a 48-well plate culture). Briefly, the PBMCs are thawed in RPMI with 30 μg/ml DNAse, washed once with PBS containing 1% human AB serum and resuspended in PBS/1% AB serum at a concentration of 20×10^6 cells/ml. The magnetic beads are washed 3 times with PBS/AB serum, added to the cells (140 μl beads/20×10^6 cells) and incubated for 1 hour at 4° C. with continuous mixing. The beads and cells are washed 4× with PBS/AB serum to remove the nonadherent cells and resuspended at 100×10^6 cells/ml (based on the original cell number) in PBS/AB serum containing 100 μl/ml detacha-bead® reagent and 30 μg/ml DNAse. The mixture is incubated for 1 hour at room temperature with continuous mixing. The beads are washed again with PBS/AB/DNAse to collect the CD8+ T-cells. The DC are collected and centrifuged at 1300 rpm for 5-7 minutes, washed once with PBS with 1% BSA, counted and pulsed with 40 μg/ml of peptide at a cell concentration of 1-2×10^6/ml in the presence of 3 μg/ml β2-microglobulin for 4 hours at 20° C. The DC are then irradiated (4,200 rads), washed 1 time with medium and counted again.
Setting up induction cultures: 0.25 ml cytokine-generated DC (@1×10^5 cells/ml) are co-cultured with 0.25 ml of CD8+ T-cells (@2×10^6 cell/ml) in each well of a 48-well plate in the presence of 10 ng/ml of IL-7. Recombinant human IL10 is added the next day at a final concentration of 10 ng/ml and rhuman IL2 is added 48 hours later at 10 IU/mL.
Restimulation of the induction cultures with peptide-pulsed adherent cells: Seven and fourteen days after the primary induction the cells are restimulated with peptide-pulsed adherent cells. The PBMCS are thawed and washed twice with RPMI and DNAse. The cells are resuspended at 5×10^6 cells/ml and irradiated at ˜4200 rads. The PBMCs are plated at 2×10^6 in 0.5 ml complete medium per well and incubated for 2 hours at 37° C. The plates are washed twice with RPMI by tapping the plate gently to remove the nonadherent cells and the adherent cells pulsed with 10 μg/ml of peptide in the presence of 3 μg/ml β2 microglobulin in 0.25 ml RPMI/5% AB per well for 2 hours at 37° C. Peptide solution from each well is aspirated and the wells are washed once with RPMI. Most of the media is aspirated from the induction cultures (CD8+ cells) and brought to 0.5 ml with fresh media. The cells are then transferred to the wells containing the peptide-pulsed adherent cells. Twenty four hours later rhuman IL10 is added at a final concentration of 10 ng/ml and rhuman IL2 is added the next day and again 2-3 days later at 50 IU/ml (Tsai et al., Critical Reviews in Immunology 18(1-2):65-75, 1998). Seven days later the cultures are assayed for CTL activity in a ^51Cr release assay. In some experiments the cultures are assayed for peptide-specific recognition in the in situ IFNγ ELISA at the time of the second restimulation followed by assay of endogenous recognition 7 days later. […]

Take `CC(C)C[C@H](NC(=O)[C@H](CC(=O)O)NC(=O)[C@@H](NC(=O)[C@H](CS)NC(=O)[C@H](CCC(N)=O)NC(=O)[C@H](CC(C)C)NC(=O)[C@@H](N)CCCCN)C(C)C)C(=O)N[C@@H](Cc1c[nH]cn1)C(=O)N[C@H](C(=O)O)C(C)C` [Peptide 990.01]: the A2 peptide was 1/2. The same measure, in the same setting: the value for `CC[C@H](C)[C@H](N)C(=O)N[C@@H](CC(C)C)C(=O)N[C@@H](CC(C)C)C(=O)N[C@@H](Cc1c[nH]c2ccccc12)C(=O)N[C@@H](CCC(N)=O)C(=O)N1CCC[C@H]1C(=O)N[C@H](C(=O)N1CCC[C@H]1C(=O)N[C@H](C(=O)O)C(C)C)[C@@H](C)CC` [Peptide 1044.04] was 5/5; that for `CC[C@H](C)[C@H](N)C(=O)N[C@@H](CCSC)C(=O)N[C@@H](Cc1ccc(O)cc1)C(=O)N[C@@H](CO)C(=O)N[C@@H](C)C(=O)N[C@@H](Cc1c[nH]cn1)C(=O)N[C@@H](CC(=O)O)C(=O)N[C@H](C(=O)N[C@H](C(=O)N[C@H](C(=O)O)C(C)C)[C@@H](C)O)[C@@H](C)O` [Peptide 1097.05] was 3/3. Still for that read-out and setting: as for `CC(C)C[C@H](NC(=O)[C@H](Cc1c[nH]c2ccccc12)NC(=O)[C@H](Cc1ccccc1)NC(=O)[C@H](Cc1ccccc1)NC(=O)[C@H](CC(C)C)NC(=O)[C@@H](N)CC(C)C)C(=O)N[C@@H](CC(=O)O)C(=O)N[C@@H](CCCNC(=N)N)C(=O)N[C@@H](CO)C(=O)N[C@H](C(=O)O)C(C)C` [Peptide 1097.09], the figure is 3/3. Still for that read-out and setting: the value for `CC(C)C[C@H](NC(=O)[C@H](CCC(=O)O)NC(=O)[C@H](CCCCN)NC(=O)[C@H](C)NC(=O)[C@H](CC(C)C)NC(=O)[C@@H](N)C(C)C)C(=O)N[C@@H](CCCCN)C(=O)N[C@@H](Cc1ccccc1)C(=O)N[C@H](C(=O)O)C(C)C` [Peptide 1097.17] was 1/3; that for `CC(C)C[C@H](NC(=O)[C@H](CCCCN)NC(=O)[C@H](CCCCN)NC(=O)[C@@H]1CCCN1C(=O)[C@@H](NC(=O)[C@H](CC(C)C)NC(=O)[C@@H](N)Cc1ccccc1)[C@@H](C)O)C(=O)N[C@@H](CCC(N)=O)C(=O)N[C@@H](CS)C(=O)N[C@H](C(=O)O)C(C)C` [Peptide 1098.02] was 3/4; that for `CSCC[C@H](NC(=O)[C@H](CC(C)C)NC(=O)[C@H](CCC(N)=O)NC(=O)[C@H](CC(=O)O)NC(=O)[C@H](CC(N)=O)NC(=O)[C@H](CCSC)NC(=O)[C@@H](N)CCSC)C(=O)N[C@@H](Cc1ccccc1)C(=O)N[C@@H](CC(C)C)C(=O)O` [Peptide 1126.01] was 2/2. `CSCC[C@H](NC(=O)[C@H](CC(C)C)NC(=O)[C@H](CCC(N)=O)NC(=O)[C@H](CC(=O)O)NC(=O)[C@H](CC(N)=O)NC(=O)[C@H](CCSC)NC(=O)[C@H](CCSC)NC(=O)[C@@H](N)CCCNC(=N)N)C(=O)N[C@@H](Cc1ccccc1)C(=O)N[C@@H](CC(C)C)C(=O)O` [Peptide 1126.06]: the A2 peptide is 1/1. On to `CC(C)C[C@H](NC(=O)[C@H](CC(C)C)NC(=O)[C@H](Cc1ccccc1)NC(=O)[C@H](Cc1ccccc1)NC(=O)CNC(=O)CNC(=O)[C@H](C)NC(=O)[C@H](CC(C)C)NC(=O)[C@@H](N)C(C)C)C(=O)O` [Peptide 1126.10], for which the A2 peptide is 1/2. Same read-out and setting: as for `CSCC[C@H](NC(=O)[C@@H](N)CC(C)C)C(=O)N[C@@H](Cc1ccc(O)cc1)C(=O)N[C@@H](CO)C(=O)N[C@@H](CC(C)C)C(=O)N[C@H](C(=O)N[C@@H](Cc1c[nH]cn1)C(=O)N[C@@H](CC(N)=O)C(=O)N[C@@H](CC(C)C)C(=O)O)C(C)C` [Peptide 1126.14], the figure is 3/3; as for `CC[C@H](C)[C@H](NC(=O)[C@H](Cc1ccc(O)cc1)NC(=O)[C@H](C)NC(=O)[C@@H](NC(=O)CNC(=O)[C@H](CCCNC(=N)N)NC(=O)[C@H](CCC(=O)O)NC(=O)[C@H](CCC(N)=O)NC(=O)[C@H](CC(C)C)NC(=O)[C@@H](N)CC(C)C)C(C)C)C(=O)O` [Peptide 1129.01], 3/3. Same read-out and setting: the value for `CSCC[C@H](NC(=O)CN)C(=O)N1CCC[C@H]1C(=O)N[C@@H](CCC(=O)O)C(=O)NCC(=O)N[C@@H](CC(=O)O)C(=O)N[C@@H](CC(C)C)C(=O)N[C@H](C(=O)N[C@@H](Cc1ccc(O)cc1)C(=O)N[C@H](C(=O)O)C(C)C)C(C)C` [Peptide 1129.04] was 0/1. The same measure, in the same setting: as for `CC[C@H](C)[C@H](NC(=O)[C@H](CC(=O)O)NC(=O)[C@H](Cc1ccccc1)NC(=O)[C@H](CC(C)C)NC(=O)[C@H](C)N)C(=O)N[C@@H](CCC(=O)O)C(=O)N[C@@H](CO)C(=O)N[C@@H](CCCCN)C(=O)N[C@H](C(=O)O)C(C)C` [Peptide 1129.08], the figure is 2/2; as for `CC[C@H](C)[C@H](NC(=O)[C@@H]1CCCN1C(=O)[C@H](Cc1c[nH]cn1)NC(=O)[C@@H](NC(=O)[C@@H]1CCCN1C(=O)[C@@H](NC(=O)[C@H](CO)NC(=O)[C@@H]1CCCN1C(=O)[C@H](CC(C)C)NC(=O)CN)[C@@H](C)CC)C(C)C)C(=O)O` [Peptide 1129.10], 2/4.

`CSCC[C@H](NC(=O)[C@H](C)NC(=O)[C@H](CO)NC(=O)[C@H](CCSC)NC(=O)[C@H](CC(C)C)NC(=O)[C@@H](N)[C@@H](C)O)C(=O)N[C@H](C(=O)N[C@@H](CC(N)=O)C(=O)N[C@@H](CC(C)C)C(=O)O)[C@@H](C)O` [Peptide 1177.01]: the A2 peptide is reported as 2/2. With `CSCC[C@H](N)C(=O)N[C@@H](CC(C)C)C(=O)N[C@@H](CC(C)C)C(=O)N[C@@H](CCCNC(=N)N)C(=O)N[C@@H](CC(C)C)C(=O)N[C@@H](CO)C(=O)N[C@@H](CCC(=O)O)C(=O)N1CCC[C@H]1C(=O)N[C@H](C(=O)O)C(C)C` [Peptide 1389.10], the A2 native is given as 1/3 and the A2 peptide was 3/3. The like results for `CC(C)C[C@H](NC(=O)[C@H](C)N)C(=O)NCC(=O)N[C@H](C(=O)N[C@H](C(=O)N[C@@H](CS)C(=O)N[C@@H](Cc1ccc(O)cc1)C(=O)N[C@H](C(=O)O)C(C)C)[C@@H](C)O)[C@@H](C)O` [Peptide 1389.14] were, in that order, 1/3 and 2/3. As to `CC(C)C[C@H](NC(=O)[C@H](Cc1ccccc1)NC(=O)[C@H](Cc1ccccc1)NC(=O)CNC(=O)CNC(=O)[C@H](C)NC(=O)[C@H](CC(C)C)NC(=O)[C@@H](N)C(C)C)C(=O)N[C@H](C(=O)O)C(C)C` [Peptide 1389.20], the A2 native is given as 1/2 and the A2 peptide is recorded as 1/2. `CC[C@H](C)[C@H](NC(=O)[C@H](CO)NC(=O)[C@@H]1CCCN1C(=O)[C@H](CC(C)C)NC(=O)CN)C(=O)N1CCC[C@H]1C(=O)N[C@H](C(=O)N[C@@H](Cc1c[nH]cn1)C(=O)N1CCC[C@H]1C(=O)N[C@H](C(=O)O)C(C)C)C(C)C` [Peptide 1389.24]: the A2 native is 3/4 and the A2 peptide is given as 4/4. In the same order, the values of `CC[C@H](C)[C@H](NC(=O)[C@H](CO)NC(=O)[C@H](CC(C)C)NC(=O)[C@H](CC(C)C)NC(=O)[C@@H](N)CC(C)C)C(=O)N[C@@H](C)C(=O)N[C@@H](CC(C)C)C(=O)N[C@@H](CO)C(=O)N[C@H](C(=O)O)C(C)C` [Peptide 1418.13] are 2/2 and 2/2. In the same order, the values of `CC(C)C[C@H](NC(=O)[C@H](Cc1c[nH]c2ccccc12)NC(=O)[C@H](Cc1ccccc1)NC(=O)[C@H](Cc1ccccc1)NC(=O)[C@@H](NC(=O)[C@@H](N)CC(C)C)[C@@H](C)O)C(=O)N[C@@H](CC(=O)O)C(=O)N[C@@H](CCCNC(=N)N)C(=O)N[C@@H](CO)C(=O)N[C@H](C(=O)O)C(C)C` [Peptide 1418.23] are 2/3 and 3/3.
